Results: patent US12590062B2, “PD-1/PD-L1 inhibitors” (Gilead Sciences, Inc., priority 2017, dated 2026)

What was measured:
PD-1/PD-L1 = PD-1/PD-L1 (Homo sapiens, UniProt Q9NZQ7); experiment: PD-1/PD-L1 biochemical protein-protein interaction assay (ALPHA); type: binding; conditions: 0.3 nM His tagged PD-L1, 2.5 nM biotinylated Fc-PD-1, 60 minutes at 25° C., read-out: IC50 PD-L1-PD-1 Alpha IC50-mono PD-L1-fcP-D1
Summary of the method: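 Final concentrations 0.3 nM His-tagged PD-L1 and 2.5 nM biotinylated Fc-PD-1 (extracellular domains) were reacted with compound for 60 min at 25° C in pH 7.4 Hepes/NaCl/EDTA/Tween/BSA buffer. Binding was then detected by ALPHA beads, and IC50 values were taken from four-parameter curve fitting.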

PD-1/PD-L1 interaction = biological target: T1, PD-1/PD-L1 interaction (Homo sapiens, UniProt Q9NZQ7); experiment: PD-1/PD-L1 NFAT reporter co-culture assay; type: cell-based; conditions: Jurkat PD-1 NFAT-luciferase cells co-cultured with aAPC-PD-L1 CHO cells, 6 hrs at 37° C.; read-out: EC50 NFAT Luciferase
T1 construct: expressed in transfected cells; host or cells: CHO cells (aAPC-PD-L1) co-cultured with Jurkat cells overexpressing PD-1 and an NFAT-luciferase reporter
Summary of the method: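 CHO aAPC-PD-L1 seeded overnight; PD-1/NFAT-luc Jurkat + cpd in RPMI 1640, 2% FBS added at once; 6 h, 37 °C; ONE-Glo luminescence; EC50, 4-parameter fit.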

PD-L1 = biological target: T2, PD-L1 (Homo sapiens, UniProt Q9NZQ7); experiment: PD-L1/PD-L1 dimerization biochemical protein-protein interaction assay (ALPHA); type: binding; conditions: compound-induced PD-L1 dimerization, head prints '1 nM' (0.5 nM His-tagged PD-L1 and 0.5 nM FLAG-tagged PD-L1), read-out: AC50 PDL1 Dimer Alpha 1 nM
T2 construct: determine if they can specifically dimerize the extracellular domains of PD-L1
Summary of the method: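 ALPHA proximity assay of compound-induced dimerization of 0.5 nM His-tagged and 0.5 nM FLAG-tagged PD-L1 extracellular domains in Hepes pH 7.4 buffer, 2 h at 25 °C. Anti-His acceptor then anti-FLAG donor beads, 60 min each; AC50 from four-parameter fit.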

T2 sequence (Q9NZQ7 19-238 limits assumed): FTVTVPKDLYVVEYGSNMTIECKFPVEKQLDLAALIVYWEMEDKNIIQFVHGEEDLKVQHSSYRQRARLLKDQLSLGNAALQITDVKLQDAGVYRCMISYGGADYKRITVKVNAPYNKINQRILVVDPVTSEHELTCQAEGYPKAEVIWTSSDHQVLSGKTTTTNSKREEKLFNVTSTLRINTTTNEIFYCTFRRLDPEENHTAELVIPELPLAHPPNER
T2 sequence (Q9NZQ7 19-238 limits assumed): as above
Sequence of PD-1/PD-L1 (Q9NZQ7 19-238 limits assumed): as above
T1 sequence (Q9NZQ7 19-290): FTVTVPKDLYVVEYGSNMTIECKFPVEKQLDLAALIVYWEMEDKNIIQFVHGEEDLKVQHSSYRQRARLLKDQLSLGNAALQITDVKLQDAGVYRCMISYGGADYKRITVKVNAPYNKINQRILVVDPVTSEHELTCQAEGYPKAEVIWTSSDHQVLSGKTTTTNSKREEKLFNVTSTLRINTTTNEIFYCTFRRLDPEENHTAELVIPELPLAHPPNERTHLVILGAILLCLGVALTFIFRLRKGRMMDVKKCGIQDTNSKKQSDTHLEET

| SMILES | IC50 (PD-1/PD-L1) [nM] | EC50 (PD-1/PD-L1 interaction) [nM] | AC50 (PD-L1) [nM] |
| --- | --- | --- | --- |
| C[C@@](CO)(NCc1cc(Cl)c(O[C@H]2CCc3c(-c4cccc5c4CC[C@@H]5Oc4nc(OCc5cncc(S(C)(=O)=O)c5)c(CNCCO)cc4Cl)cccc32)nc1OCc1cncc(S(C)(=O)=O)c1)C(=O)O [Example 690] | 0.28 | 287 | 80.8 |
| COc1nc(-c2cccc(-c3cccc4c3CC[C@@H]4Oc3nc(OCc4cncc(C#N)c4)c(CNC[C@@H](O)CC(=O)O)cc3Cl)c2Cl)ccc1CN1CC2(CCC(=O)N2)C1 [Example 683] | 0.104 | 98 | 116 |
| COc1nc(-c2cccc(-c3cccc4c3CC[C@@H]4Oc3nc(OC)c(CNC[C@@H](O)CC(=O)O)cc3Cl)c2Cl)ccc1CNC[C@@H]1CCC(=O)N1 [Example 728] | 0.064 | 25 | 15 |
| COc1nc(-c2cccc(-c3cccc4c3CC[C@@H]4Oc3nc(OC)c(CN4CCC[C@@H](C(=O)O)C4)cc3Cl)c2Cl)ccc1CNC[C@@H]1CCC(=O)N1 [Example 758] | 0.064 | 29 | 36.7 |
| Cc1c(COc2cc(OCc3cncc(C#N)c3)c(CN[C@@](C)(CO)C(=O)O)cc2Cl)cccc1-c1cccc(-c2ccc(OCCc3cccnc3)c(CNCCO)c2)c1C [Example 364, (S)-2-((5-chloro-2-((5-cyanopyridin-3-yl)methoxy)-4-((3″-(((2-hydroxyethyl)amino)methyl)-2,2′-dimethyl-4″-(2-(pyridin-3-yl)ethoxy)-[1,1′:3′,1″-terphenyl]-3-yl)methoxy)benzyl)amino)-3-hydroxy-2-methylpropanoic acid] | 0.304 | 353 | 98.3 |
| Cc1c(COc2cc(OCc3cncc(C#N)c3)c(CNC[C@@H](O)CC(=O)O)cc2Cl)cccc1-c1cccc(-c2ccc(CN(C)C)cc2)c1Br [Example 484] | 0.205 | 138 | 108 |
| COc1nc(O[C@H]2CCc3c(-c4cccc(-c5ccc(CNC[C@@H]6CCC(=O)N6)cc5)c4Cl)cccc32)c(Cl)cc1CN[C@@H]1CCC[C@@H]1O [Example 717] | 0.572 | 484 | 16.2 |
| COc1nc(O[C@H]2CCc3c(-c4cccc(-c5ccc(C6=N[C@H](C)CN6)c(OC)n5)c4Cl)cccc32)c(Br)cc1CN[C@@](C)(CO)C(=O)O [Example 782] | 0.064 | 38 | 23.1 |
| C[C@@](CO)(NCc1cc(Cl)c(O[C@H]2CCc3c(-c4cccc(-c5ccc6c(c5)C[C@H](N)C6)c4Cl)cccc32)nc1OCc1cncc(C#N)c1)C(=O)O [Example 695] | 0.064 | 26 | 21.6 |
| C[C@@](CO)(NCc1cc(Br)c(O[C@H]2CCc3c(-c4cccc(-c5ccc(OCCNCCO)cc5)c4Cl)cccc32)nc1OCc1cncc(C#N)c1)C(=O)O [Example 663] | 0.064 | 118 | 6.56 |
| Cc1c(COc2cc(OCc3cncc(C#N)c3)c(CNCCO)cc2Cl)cccc1-c1cccc(COc2cc(OCc3cncc(C#N)c3)c(CNCCO)cc2Cl)c1Br [Example 480] | 1.12 | 147 | 114 |
| C[C@@](CO)(NCc1cc(Br)c(O[C@H]2CCc3c(-c4cccc(-c5ccc(C6=NCCN6)cc5)c4Cl)cccc32)nc1OCc1cncc(C#N)c1)C(=O)O [Example 737] | 0.064 | 80 | 8.23 |
| CS(=O)(=O)c1cncc(COc2nc(OCc3cccc(-c4cccc(-c5ccc6c(c5)C[C@@H](N)C6)c4Cl)c3Cl)c(Br)cc2CN2CCCC[C@H]2C(=O)O)c1 [Example 544] | 0.09 | 109 | 17.3 |
| Cc1c(COc2cc(OCc3cncc(C#N)c3)c(CN[C@@](C)(CO)C(=O)O)cc2Cl)cccc1-c1cccc(-c2cccc([C@H](C)N)c2)c1C [Example 499] | 0.093 | 59 | 86.5 |
| COc1nc(-c2cccc(-c3cccc(-c4ccc5[nH]c(CN(C)C)cc5c4)c3Cl)c2Cl)ccc1CNC[C@@H]1CCC(=O)N1 [Example 606] | 6.23 | ≥ 50000 | 558 |
| C[C@@](CO)(NCc1cc(Cl)c(O[C@H]2CCc3c(-c4cccc5c4CC[C@@H]5Oc4nc(OCc5cncc(C#N)c5)c(CNCCO)cc4Cl)cccc32)nc1OCc1cncc(C#N)c1)C(=O)O [Example 295] | 0.312 | 279 | 67.6 |
| Cc1c(COc2cc(OCc3cncc(C#N)c3)c(CN[C@@](C)(CO)C(=O)O)cc2Cl)cccc1-c1cccc(-c2ccc3c(c2)CCC3N(C)CCO)c1C (stereo partly drawn) [Example 375, (2S)-2-((5-chloro-2-((5-cyanopyridin-3-yl)methoxy)-4-((3′-(1-((2-hydroxyethyl)(methyl)amino)-2,3-dihydro-1H-inden-5-yl)-2,2′-dimethyl-[1,1′-biphenyl]-3-yl)methoxy)benzyl)amino)-3-hydroxy-2-methylpropanoic acid] | 0.21 | 389 | 173 |
| COc1nc(-c2cccc(-c3cccc(-c4ccc5c(CN(C)C)c[nH]c5c4)c3Cl)c2Cl)ccc1CNC[C@@H]1CCC(=O)N1 [Example 610] | 0.746 | ≥ 50000 | 105 |
| COc1nc(O[C@H]2CCc3c(-c4cccc(-c5ccc(C6=NCCN6)c(OC)n5)c4Cl)cccc32)c(Br)cc1CNC(C)(C)C(=O)O [Example 786] | 0.064 | 86 | 12.2 |
| C[C@](CO)(NCc1cc(Br)c(OCc2cccc(-c3cccc(-c4ccc5c(c4)C[C@@H](N)C5)c3Cl)c2Cl)nc1OCc1cncc(S(C)(=O)=O)c1)C(=O)O [Example 547] | 0.363 | 51 | 20.1 |
| COc1nc(OCc2cccc(-c3cccc(-c4ccc5c(c4)C[C@@H](N)C5)c3Cl)c2Cl)c(Br)cc1CN[C@@](C)(CO)C(=O)O [Example 435] | 0.234 | 316 | 86.2 |
| COc1nc(O[C@H]2CCc3c(-c4cccc(-c5cc(C)c(CNC[C@@H]6CCC(=O)N6)c(OC)n5)c4Cl)cccc32)c(Cl)cc1CN1CC[C@@](C)(C(=O)O)C1 [Example 488] | 0.064 | 26 | 25.6 |
| C[C@@](CO)(NCc1ccc(O[C@H]2CCc3c(-c4cccc(-c5ccc(CNC[C@@H]6CCC(=O)N6)cc5)c4Cl)cccc32)nc1OCc1cncc(C#N)c1)C(=O)O [Example 742] | 0.064 | 32 | 42 |
| COc1nc(-c2cccc(-c3csc(-c4cnc(CNC[C@@H]5CCC(=O)N5)c(OC)n4)c3)c2Cl)ccc1CNC[C@@H]1CCC(=O)N1 [Example 600] | 0.39 | 240 | 261 |
| CC(C)(NCc1cc(Cl)c(OCc2cccc(-c3cccc(-c4ccc(OCCNCCO)cc4)c3Cl)c2Cl)nc1OCc1cc(C#N)cc(C#N)c1)C(=O)O [Example 578] | 0.111 | 135 | 37.2 |
| Cc1c(COc2cc(OCc3cncc(C#N)c3)c(CN3CC[C@@H](O)C3)cc2Cl)cccc1-c1cccc(-c2ncc(CN3CC[C@@H](O)C3)cn2)c1C [Example 454] | 1.01 | 953 | 943 |
| COc1nc(OCc2cccc(-c3cccc(-c4ccc(CNC[C@@H]5CCC(=O)N5)cc4)c3Cl)c2Cl)c(Br)cc1CNC[C@@H]1CCC(=O)N1 [Example 431] | 1.32 | 275 | 249 |
